Data taken from the CheMixHub ionic liquid set.
Several values for one entry are separate records, joined by “and”; a condition that tells them apart may be missing. Equal values may be shown once.

Test: xn = mol fraction of the nth substance listed

CC[NH3+].O=[N+]([O-])[O-] + O
Settings | viscosity
288.15 K, 101.33 kPa, x2 = 0.574 | 5.43 mPa·s and 7.928 mPa·s
293.15 K, 100 kPa, x2 = 0.1088 | 20.97 mPa·s
293.15 K, 100 kPa, x2 = 0.3682 | 7.63 mPa·s
293.15 K, 100 kPa, x2 = 0.47 | 6.34 mPa·s
293.15 K, 100 kPa, x2 = 0.579 | 5.03 mPa·s
293.15 K, 101.33 kPa, x2 = 0.574 | 4.86 mPa·s and 7.175 mPa·s
298 K, 101 kPa, x2 = 0.7 | 3.42 mPa·s
298 K, 101 kPa, x2 = 0.95 | 1.15 mPa·s
298.15 K, 100 kPa, x2 = 0.7889 | 2.16 mPa·s
298.15 K, 100 kPa, x2 = 0.8895 | 1.48 mPa·s
298.15 K, 101.33 kPa, x2 = 0.574 | 4.415 mPa·s and 6.559 mPa·s
303.15 K, 100 kPa, x2 = 0.1088 | 15.74 mPa·s
303.15 K, 100 kPa, x2 = 0.2597 | 7.78 mPa·s
303.15 K, 100 kPa, x2 = 0.7889 | 1.95 mPa·s
303.15 K, 100 kPa, x2 = 0.8895 | 1.34 mPa·s
303.15 K, 101.33 kPa, x2 = 0.574 | 3.953 mPa·s and 5.989 mPa·s
308.15 K, 100 kPa, x2 = 0.1088 | 13.76 mPa·s
308.15 K, 100 kPa, x2 = 0.47 | 4.52 mPa·s
308.15 K, 101.33 kPa, x2 = 0.574 | 3.571 mPa·s and 5.567 mPa·s
313.15 K, 100 kPa, x2 = 0 | 22.67 mPa·s
313.15 K, 100 kPa, x2 = 0.579 | 3.26 mPa·s
313.15 K, 101.33 kPa, x2 = 0.574 | 3.247 mPa·s and 5.268 mPa·s
318.15 K, 100 kPa, x2 = 0.47 | 3.71 mPa·s
318.15 K, 100 kPa, x2 = 0.7889 | 1.49 mPa·s
318.15 K, 101.33 kPa, x2 = 0.574 | 2.96 mPa·s and 4.826 mPa·s
323.15 K, 101.33 kPa, x2 = 0.574 | 2.709 mPa·s and 4.535 mPa·s
328.15 K, 101.33 kPa, x2 = 0.574 | 2.479 mPa·s and 4.213 mPa·s
333.15 K, 101.33 kPa, x2 = 0.574 | 2.281 mPa·s and 4.065 mPa·s
338.15 K, 101.33 kPa, x2 = 0.574 | 2.102 mPa·s and 3.912 mPa·s
343.15 K, 101.33 kPa, x2 = 0.574 | 1.945 mPa·s

CC[n+]1ccn(C)c1.N#C[S-] + O
100 kPa
Settings | viscosity [mPa·s]
288.15 K, x2 = 0.9443 | 1.96
293.15 K, x2 = 0.1006 | 22.55
293.15 K, x2 = 0.7981 | 4.08
293.15 K, x2 = 0.9105 | 2.27
303.15 K, x2 = 0.1948 | 13.75
303.15 K, x2 = 0.4011 | 9.55
303.15 K, x2 = 0.6887 | 4.72
308.15 K, x2 = 0 | 16.39
308.15 K, x2 = 0.1948 | 12.02
308.15 K, x2 = 0.6043 | 5.31
308.15 K, x2 = 0.6887 | 4.19
313.15 K, x2 = 0.1006 | 12.15
313.15 K, x2 = 0.9105 | 1.44
313.15 K, x2 = 0.9506 | 1.07
318.15 K, x2 = 0 | 12.43
318.15 K, x2 = 0.1948 | 9.38

C[N+](C)(C)CCO.O=C([O-])CO + O
Settings | viscosity [mPa·s]
293.15 K, 101 kPa, x2 = 0.366 | 660
